Measurements as given in patent US10750743B2, “Pyridazinone herbicides” (E.I. DU PONT DE NEMOURS AND COMPANY, priority 2015, dated 2020).

How the values were obtained:
Format in all cases: in vivo
[1] = test system: sedge, umbrella (small-flower umbrella sedge, Cyperus difformis); experiment: Test B flooded paddy test, visual rating; conditions: Flood, 250 g ai/ha, applied to paddy water, rated after 13 to 15 d
Summary of the method: (§1)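 Ratings use a 0-100 visual scale, where 100 is complete control, and compare treated plants with controls after 13 to 15 d of greenhouse growth. Compound went straight into paddy water kept 3 cm over the soil surface, applied to seedlings at the 2-leaf stage.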

[2] = test system: ducksalad (Heteranthera limosa); experiment: Test B flooded paddy test, visual rating; conditions: Flood, 250 g ai/ha, applied to paddy water, rated after 13 to 15 d
Summary of the method: as §1

[3] = test system: barnyardgrass (Echinochloa crus-galli); experiment: Test B flooded paddy test, visual rating; conditions: Flood, 250 g ai/ha, applied to paddy water, rated after 13 to 15 d
Summary of the method: as §1

rice (Oryza sativa) = experiment: Test B flooded paddy test, visual rating; conditions: Flood, 250 g ai/ha, applied to paddy water, rated after 13 to 15 d
Summary of the method: as §1

[4] = test system: galium (catchweed bedstraw, Galium aparine); experiment: Test A postemergence application, visual injury rating; conditions: 0 to 100 scale, 0 no effect, 100 complete control
Summary of the method: (§2)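 Injury ratings, 0 (no effect) to 100 (complete control), were scored visually versus untreated plants roughly 10 d after treatment under greenhouse conditions. Treatments used surfactant-containing solvent formulations, sprayed onto soil preemergence or onto one- to two-leaf seedlings (2-10 cm) postemergence, grown in a loam-sand mix.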

[5] = test system: blackgrass (Alopecurus myosuroides); experiment: as above; conditions: 0 to 100 scale, 0 no effect, 100 complete control
Summary of the method: as §2

kochia (Kochia scoparia) [6] = experiment: as above; conditions: 0 to 100 scale, 0 no effect, 100 complete control
Summary of the method: as §2

corn (Zea mays) = experiment: as above; conditions: 0 to 100 scale, 0 no effect, 100 complete control
Summary of the method: as §2

[7] = test system: barnyardgrass (Echinochloa crus-galli); experiment: as above; conditions: 0 to 100 scale, 0 no effect, 100 complete control
Summary of the method: as §2

[8] = test system: ryegrass, It. (Italian ryegrass, Lolium multiflorum); experiment: as above; conditions: 0 to 100 scale, 0 no effect, 100 complete control
Summary of the method: as §2

[9] = test system: wheat (Triticum aestivum); experiment: as above; conditions: 0 to 100 scale, 0 no effect, 100 complete control
Summary of the method: as §2

Foxtail, Green [10] = experiment: as above; conditions: 0 to 100 scale, 0 no effect, 100 complete control
[11] = test system: pigweed (Amaranthus retroflexus); experiment: as above; conditions: 0 to 100 scale, 0 no effect, 100 complete control
Summary of the method: as §2

[12] = test system: ragweed (common ragweed, Ambrosia elatior); experiment: as above; conditions: 0 to 100 scale, 0 no effect, 100 complete control
Summary of the method: as §2

kochia (Kochia scoparia) [13] = experiment: Test A preemergence, directed soil spray, visual injury rating; conditions: 0 is no effect, 100 is complete control
Summary of the method: as §2

[14] = test system: barnyardgrass (Echinochloa crus-galli); experiment: as above; conditions: 0 is no effect, 100 is complete control
Summary of the method: as §2

[15] = test system: ryegrass, It. (Italian ryegrass, Lolium multiflorum); experiment: as above; conditions: 0 is no effect, 100 is complete control
Summary of the method: as §2

Foxtail, Green [16] = experiment: as above; conditions: 0 is no effect, 100 is complete control
[17] = test system: pigweed (Amaranthus retroflexus); experiment: as above; conditions: 0 is no effect, 100 is complete control
Summary of the method: as §2

[18] = test system: ragweed (common ragweed, Ambrosia elatior); experiment: as above; conditions: 0 is no effect, 100 is complete control
Summary of the method: as §2

## Cn1ncc(O)c(-c2cccc3cnccc23)c1=O [Compound 34]
[1]
  Sedge, Umbrella plant response rating (0 to 100 scale, 0 is no effect, 100 is complete control): 0
[2]
  Ducksalad plant response rating (0 to 100 scale, 0 is no effect, 100 is complete control): 0
[3]
  Barnyardgrass plant response rating (0 to 100 scale, 0 is no effect, 100 is complete control): 0
Rice (Oryza sativa)
  Rice plant response rating (0 to 100 scale, 0 is no effect, 100 is complete control): 0
[4]; 31 g ai/ha
  Galium plant response rating: 0
[4]; 125 g ai/ha
  Galium plant response rating: 0
[5]; 31 g ai/ha
  Blackgrass plant response rating: 0
[5]; 125 g ai/ha
  Blackgrass plant response rating: 0
Kochia (Kochia scoparia) [6]; 31 g ai/ha
  Kochia plant response rating: 0
Kochia (Kochia scoparia) [6]; 125 g ai/ha
  Kochia plant response rating: 0
Corn (Zea mays); 31 g ai/ha
  Corn plant response rating: 0
Corn (Zea mays); 125 g ai/ha
  Corn plant response rating: 0
[7]; 31 g ai/ha
  Barnyardgrass plant response rating: 0
[7]; 125 g ai/ha
  Barnyardgrass plant response rating: 0
[8]; 31 g ai/ha
  Ryegrass, It. plant response rating: 0
[8]; 125 g ai/ha
  Ryegrass, It. plant response rating: 0
[9]; 31 g ai/ha
  Wheat plant response rating: 0
[9]; 125 g ai/ha
  Wheat plant response rating: 0
Foxtail, Green [10]; 31 g ai/ha
  Foxtail, Green plant response rating: 0
Foxtail, Green [10]; 125 g ai/ha
  Foxtail, Green plant response rating: 0
[11]; 31 g ai/ha
  Pigweed plant response rating: 0
[11]; 125 g ai/ha
  Pigweed plant response rating: 0
[12]; 31 g ai/ha
  Ragweed plant response rating: 0
[12]; 125 g ai/ha
  Ragweed plant response rating: 0
Kochia (Kochia scoparia) [13]; 31 g ai/ha
  Plant response rating (0 to 100 scale), Kochia: 0
Kochia (Kochia scoparia) [13]; 125 g ai/ha
  Plant response rating (0 to 100 scale), Kochia: 0
[14]; 31 g ai/ha
  Plant response rating (0 to 100 scale), Barnyardgrass: 0
[14]; 125 g ai/ha
  Plant response rating (0 to 100 scale), Barnyardgrass: 0
[15]; 31 g ai/ha
  Plant response rating (0 to 100 scale), Ryegrass, It.: 0
[15]; 125 g ai/ha
  Plant response rating (0 to 100 scale), Ryegrass, It.: 0
Foxtail, Green [16]; 31 g ai/ha
  Plant response rating (0 to 100 scale), Foxtail, Green: 0
Foxtail, Green [16]; 125 g ai/ha
  Plant response rating (0 to 100 scale), Foxtail, Green: 0
[17]; 31 g ai/ha
  Plant response rating (0 to 100 scale), Pigweed: 0
[17]; 125 g ai/ha
  Plant response rating (0 to 100 scale), Pigweed: 0
[18]; 31 g ai/ha
  Plant response rating (0 to 100 scale), Ragweed: 0
[18]; 125 g ai/ha
  Plant response rating (0 to 100 scale), Ragweed: 0

## Cc1nn(C)c(=O)c(-c2ccc(Cl)c3ccsc23)c1OC(=O)c1ccccc1 [Compound 35]
[4]; 1000 g ai/ha
  Galium plant response rating: 100
[5]; 1000 g ai/ha
  Blackgrass plant response rating: 30
Kochia (Kochia scoparia) [6]; 1000 g ai/ha
  Kochia plant response rating: 0
Corn (Zea mays); 1000 g ai/ha
  Corn plant response rating: 0
[7]; 1000 g ai/ha
  Barnyardgrass plant response rating: 20
[8]; 1000 g ai/ha
  Ryegrass, It. plant response rating: 70
[9]; 1000 g ai/ha
  Wheat plant response rating: 0
Foxtail, Green [10]; 1000 g ai/ha
  Foxtail, Green plant response rating: 0
[11]; 1000 g ai/ha
  Pigweed plant response rating: 0
[12]; 1000 g ai/ha
  Ragweed plant response rating: 0
Kochia (Kochia scoparia) [13]; 1000 g ai/ha
  Plant response rating (0 to 100 scale), Kochia: 0
[14]; 1000 g ai/ha
  Plant response rating (0 to 100 scale), Barnyardgrass: 20
[15]; 1000 g ai/ha
  Plant response rating (0 to 100 scale), Ryegrass, It.: 80
Foxtail, Green [16]; 1000 g ai/ha
  Plant response rating (0 to 100 scale), Foxtail, Green: 0
[17]; 1000 g ai/ha
  Plant response rating (0 to 100 scale), Pigweed: 0
[18]; 1000 g ai/ha
  Plant response rating (0 to 100 scale), Ragweed: 10
